Assay results: patent publication US11267809B2, “BAF complex modulating compounds and methods of using the same” (THE BOARD OF TRUSTEES OF THE LELAND STANFORD JUNIOR …, priority 2017, dated 2022)

Columns and labels:
Bmi1 expression = test: Screen for increased expression of Bmi1 (BAF target) in mESCs; type: cell-based, mouse; details: mESC screen
Excerpt: This synthetic lethal interaction has been attributed to the increased dependency of ARID1A-deficient cells on the ATR-mediated G2/M decatenation checkpoint following loss of ARID1A-mediated interactions of the BAF complex with TOP2A^7,27. Utilizing the knowledge that one of the BAF complex's diverse and essential functions involves repression of specific genes in embryonic stem cells^28, we developed a screening strategy to identify compounds that upregulate target genes repressed by the embryonic BAF complex (esBAF) in mESCs including Bmil, Ringl, and Fgf4 (FIG. 1b)^16,29. Given that the loss of ARID1A (a functionally critical, mechanistically elusive, and frequently mutated subunit of the BAF complex) sensitizes cancer cells to inhibition of the ATR kinase, we sought to identify whether our putative esBAF inhibitors (FIG. 1c) might phenocopy the loss of ARID1A in cancer cells and thereby synergize with ATR inhibitors.
We recently completed a large-scale screen to identify small molecules that result in increased expression of Bmi1, a known genetic target of BAF whose expression is increased about 6- to 12-fold upon deletion of the SMARCA4 ATPase subunit of the BAF complex^29. […]

[1] = system: HCT116 (ARID1A−/−) cell line; test: Synergy viability assay, HCT116 ARID1A(-/-); type: cell-based, human
Excerpt: SMARCA4, the primary target of our original screen, is present in both human BAF and PBAF complexes in cancer^12. PBAF complexes differ from BAF complexes by incorporation of specific subunits. Specifically, PBAF complexes contain ARID2 (as opposed to ARID1A/B), PHF10 (BAF45a) (as opposed to […] (BAF45d)), PBRM1, and lack the BAF-specific subunit SS18. PBAF specific subunits are also frequently mutated in cancer, specifically renal clear cell carcinomas and cholangiocarcinomas^33-36. To assess whether the lead compound is targeting BAF, PBAF complexes, or both, we constitutively knocked down ARID1A or ARID2 by lentiviral transduction of HCT116 cells and compared the BAFi/ATRi synergy to the wild-type (ARID1A+/+).
Isogenic HCT116 ARID1A(+/+) and ARID1A(−/−) cell lines were originally obtained from Horizon Discovery. MCF-7, Cal-51, A-704, and MDA-MB-436, MDA-MB-468, HCC1143, HCC1187, HCC1954, and ACHN cell lines were obtained from American Type […]. All cell lines were grown in McCoy's 5a Media supplemented with 10% FBS.
Viability assays were performed in 384-well plates. Cells were plated at 500 cells/well. Each drug was administered in 5-doses with 4 replicates per plate, and each 5×5 drug combination was administered with 8 replicates per plate, 24 hours after seeding. All error bars represent 4 or 8 technical replicates averaged over 3 independent experiments. Media containing fresh drug was replaced every 48 hours. After 5 days, cellular viability was measured using CellTitre blue, as described by the manufacturer.

HCT116 ARID1A(+/+) cells = test: Cell cycle analysis after double thymidine block synchronization; type: cell-based, human
Description: To investigate this, we synchronized cells in the early G1/S phase and then tracked their progression through the cell cycle upon release into media containing BAFi. To assess the full cell cycle, time points were collected beginning at early G0/G1 of the second cycle following release from thymidine block. […] This is consistent with our observation that BAFi independently has minimal toxicity or effects on proliferation. […] Further, we observe that when BAFi cells are treated with VE-821, their decreased entry and slowed progression through S Phase results in an inability to successfully complete their transition through the cell cycle, akin to knockout of ARID1A. […]
(§1) For hour-by-hour analysis, cells were collected, rinsed with PBS, and vortexed while adding 1mL ice cold 70% ethanol. […] Individual cells were gated based on forward and side scatter, auto fluorescent cells were omitted, and remaining cells were then analyzed for propidium iodide levels. To determine the percent of cells in each phase, DNA content histograms histograms were analyzed using R-package “mixtools” EM algorithm for mixtures of univariate normals. The areas of each mixed normal distribution were calculated to represent the total number of cells in each phase of the cell cycle. […] ESCs were incubated with BrdU for 1 h and the percent of cells in G2/M, stained with 7-AAD and analyzed on a BD FACScan.

mESCs = test: Toxicity in mouse embryonic stem cells (cell cycle arrest); type: cell-based
Description: From our initial Bmi1 screen, we chose 8 representative compounds to compare to the lead candidate which were either commercially available, or comprised of the same oxadiazacyclodecone 12-member macrocyclic stereoisomer backbone as Baficillin1. […] To examine a structure-activity-relationship of the compounds, HCT116 cells were then treated with increasing doses of VE-821 (1 uM-30 uM) and increasing doses of the putative inhibitors (1 uM-30 uM), both independently and with all possible combinations followed by quantification of synergy (FIG. 4c-h).
FIG. 4: Structure Activity Relationship of Putative BAF Inhibitors. […]
as §1

CO[C@H]1CN(C)C(=O)c2cc(NC(=O)NC(C)C)ccc2OC[C@H](C)N(Cc2ccc(-c3ccccn3)cc2)C[C@@H]1C [Baficillin1] was tested, and the “activation of Bmi1 and other BAF targets” value (Bmi1 expression) was “robust activation”, the “sensitivity (cell survival) compared to wild-type HCT116” value ([1]; single agent, 5 continuous days) was “slightly less sensitive” and the “combination index (CI −/−)” value ([1]; with VE-821, 5 days) was 1.44±0.12. For the same molecule, the S/G2 crossover time (HCT116 ARID1A(+/+) cells; 10 uM Baficillin1 in combination with ATRi (VE-821 10 uM)) was roughly 7.5 h, the cell cycle rate (HCT116 ARID1A(+/+) cells; Baficillin1 10 uM alone) was roughly 11 hr per cycle and the “toxicity in mESCs” value (mESCs) was “largely non-toxic”.
